Biological target: recombinant human HPK1 (Homo sapiens (Human), UniProt Q92918)
Assay: HPK1 kinase assay (ADP-Glo)
Type: biochemical
Conditions: 25 μM ATP, MBP substrate
In short: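 Activity was read as ADP formed, detected by ADP-Glo luminescence after the reaction of 5 ng recombinant human HPK1 with MBP and ATP (stocks 0.5 μg/μl and 25 μM) for 40 min at 30 °C. Buffer was Tris pH 7.5 with MgCl2, BSA and DTT, with compound in 0.5% DMSO. IC50 came from inhibition curves.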

Chain of recombinant human HPK1 (Q92918 whole entry): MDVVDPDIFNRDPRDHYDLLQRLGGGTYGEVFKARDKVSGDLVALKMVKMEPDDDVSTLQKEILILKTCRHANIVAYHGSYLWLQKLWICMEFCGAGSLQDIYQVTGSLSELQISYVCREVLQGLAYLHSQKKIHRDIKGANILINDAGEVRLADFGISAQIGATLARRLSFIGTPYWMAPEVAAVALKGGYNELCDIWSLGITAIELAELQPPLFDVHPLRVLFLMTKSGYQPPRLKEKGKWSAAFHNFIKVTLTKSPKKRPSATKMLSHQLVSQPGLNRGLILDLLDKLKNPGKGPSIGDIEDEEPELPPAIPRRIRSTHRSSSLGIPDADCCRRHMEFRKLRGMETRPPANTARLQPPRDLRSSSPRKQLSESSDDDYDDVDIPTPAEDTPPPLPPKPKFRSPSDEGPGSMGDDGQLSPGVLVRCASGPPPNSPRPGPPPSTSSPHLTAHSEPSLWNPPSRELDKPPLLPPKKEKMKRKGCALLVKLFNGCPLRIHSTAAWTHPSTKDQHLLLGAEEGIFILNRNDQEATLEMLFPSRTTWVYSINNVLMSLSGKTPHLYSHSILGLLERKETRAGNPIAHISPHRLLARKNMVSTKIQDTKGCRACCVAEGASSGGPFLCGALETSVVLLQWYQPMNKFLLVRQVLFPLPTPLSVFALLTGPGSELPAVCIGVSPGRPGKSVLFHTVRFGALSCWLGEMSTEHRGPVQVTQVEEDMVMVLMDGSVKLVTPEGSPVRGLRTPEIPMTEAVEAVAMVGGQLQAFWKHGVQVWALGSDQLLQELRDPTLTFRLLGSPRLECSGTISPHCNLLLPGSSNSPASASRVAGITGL

CN(Cc1cccnc1)c1c(F)c(Cl)c(-c2ccc3nc(NC(=O)[C@@H]4C[C@@H]4F)cn3c2)c2cn[nH]c12 [Example 349, (1S,2S)-N-(6-(5-chloro-6-fluoro-7-(methyl(pyridin-3-ylmethyl)amino)-1H-indazol-4-yl)imidazo[1,2-a]pyridin-2-yl)-2-fluorocyclopropane-1-carboxamide]
IC50: < 100 nM

Cn1nnnc1-c1c(F)c(Cl)c(-c2ccc3nc(NC(=O)[C@@H]4C[C@@H]4F)cn3c2)c2cn[nH]c12 [Example 350, (1S,2S)-N-(6-(5-chloro-6-fluoro-7-(1-methyl-1H-tetrazol-5-yl)-1H-indazol-4-yl)imidazo[1,2-a]pyridin-2-yl)-2-fluorocyclopropane-1-carboxamide]
IC50: < 100 nM

N#Cc1c(F)c(Cl)c(-c2ccc3nc(NC(=O)[C@@H]4C[C@@H]4F)cn3c2)c2cn[nH]c12 [Example 351, (1S,2S)-N-(6-(5-chloro-7-cyano-6-fluoro-1H-indazol-4-yl)imidazo[1,2-a]pyridin-2-yl)-2-fluorocyclopropane-1-carboxamide]
IC50: < 100 nM

CN(C)c1ccc(-c2ccc3nc(NC(=O)[C@@H]4C[C@@H]4F)cn3c2)c2cn[nH]c12 [Example 352, (1S,2S)-N-(6-(7-(dimethylamino)-1H-indazol-4-yl)imidazo[1,2-a]pyridin-2-yl)-2-fluorocyclopropane-1-carboxamide]
IC50: 101 to 500 nM

CN(Cc1ccncc1)c1c(F)c(Cl)c(-c2ccc3nc(NC(=O)[C@@H]4C[C@@H]4F)cn3c2)c2cn[nH]c12 [Example 353, (1S,2S)-N-(6-(5-chloro-6-fluoro-7-(methyl(pyridin-4-ylmethyl)amino)-1H-indazol-4-yl)imidazo[1,2-a]pyridin-2-yl)-2-fluorocyclopropane-1-carboxamide]
IC50: < 100 nM

CN(C)C(=O)c1c(F)cc(-c2ccc3nc(NC(=O)[C@@H]4C[C@@H]4F)cn3c2)c2cn[nH]c12 [Example 354, 6-fluoro-4-(2-((1S,2S)-2-fluorocyclopropane-1-carboxamido)imidazo[1,2-a]pyridin-6-yl)-N,N-dimethyl-1H-indazole-7-carboxamide]
IC50: > 1000 nM

CN(C)C(=O)c1c(F)cc2[nH]ncc2c1-c1ccc2nc(NC(=O)[C@@H]3C[C@@H]3F)cn2c1 [Example 355, 6-fluoro-4-(2-((1S,2S)-2-fluorocyclopropane-1-carboxamido)imidazo[1,2-a]pyridin-6-yl)-N,N-dimethyl-1H-indazole-5-carboxamide]
IC50: > 1000 nM

CCOc1c(F)c(F)c2[nH]ncc2c1-c1ccc2nc(NC(=O)[C@@H]3C[C@@H]3F)cn2c1 [Example 357, (1S,2S)-N-(6-(5-ethoxy-6,7-difluoro-1H-indazol-4-yl)imidazo[1,2-a]pyridin-2-yl)-2-fluorocyclopropane-1-carboxamide]
IC50: < 100 nM

CN1CCN(c2c(F)c(Cl)c(-c3ccc4nc(NC(=O)[C@@H]5C[C@@H]5F)cn4c3)c3cn[nH]c23)C1=O [Example 358, (1S,2S)-N-(6-(5-chloro-6-fluoro-7-(3-methyl-2-oxoimidazolidin-1-yl)-1H-indazol-4-yl)imidazo[1,2-a]pyridin-2-yl)-2-fluorocyclopropane-1-carboxamide]
IC50: < 100 nM

CC(C)N(C)c1c(F)c(Cl)c(-c2ccc3nc(NC(=O)[C@@H]4C[C@@H]4F)cn3c2)c2cn[nH]c12 [Example 360, (1S,2S)-N-(6-(5-chloro-6-fluoro-7-(isopropyl(methyl)amino)-1H-indazol-4-yl)imidazo[1,2-a]pyridin-2-yl)-2-fluorocyclopropane-1-carboxamide]
IC50: < 100 nM

O=C(Nc1cn2cc(-c3c(Cl)c(F)c(CF)c4[nH]ncc34)ccc2n1)[C@@H]1C[C@@H]1F [Example 363, (1S,2S)-N-(6-(5-chloro-6-fluoro-7-(fluoromethyl)-1H-indazol-4-yl)imidazo[1,2-a]pyridin-2-yl)-2-fluorocyclopropane-1-carboxamide]
IC50: < 100 nM

Cc1noc(-c2c(F)c(Cl)c(-c3ccc4nc(NC(=O)[C@@H]5C[C@@H]5F)cn4c3)c3cn[nH]c23)n1 [Example 364, (1S,2S)-N-(6-(5-chloro-6-fluoro-7-(3-methyl-1,2,4-oxadiazol-5-yl)-1H-indazol-4-yl)imidazo[1,2-a]pyridin-2-yl)-2-fluorocyclopropane-1-carboxamide]
IC50: < 100 nM

O=C(Nc1cn2cc(-c3c(Cl)c(F)c(-n4cccc4)c4[nH]ncc34)ccc2n1)[C@@H]1C[C@@H]1F [Example 365, (1S,2S)-N-(6-(5-chloro-6-fluoro-7-(1H-pyrrol-1-yl)-1H-indazol-4-yl)imidazo[1,2-a]pyridin-2-yl)-2-fluorocyclopropane-1-carboxamide]
IC50: < 100 nM

N#CCNc1c(F)c(Cl)c(-c2ccc3nc(NC(=O)[C@@H]4C[C@@H]4F)cn3c2)c2cn[nH]c12 [Example 366, (1S,2S)-N-(6-(5-chloro-7-((cyanomethyl)amino)-6-fluoro-1H-indazol-4-yl)imidazo[1,2-a]pyridin-2-yl)-2-fluorocyclopropane-1-carboxamide]
IC50: < 100 nM

O=C(Nc1cn2cc(-c3c(Cl)c(F)c(NC4CC4)c4[nH]ncc34)ccc2n1)[C@@H]1C[C@@H]1F [Example 367, (1S,2S)-N-(6-(5-chloro-7-(cyclopropylamino)-6-fluoro-1H-indazol-4-yl)imidazo[1,2-a]pyridin-2-yl)-2-fluorocyclopropane-1-carboxamide]
IC50: < 100 nM

O=C(Nc1cn2cc(-c3c(Cl)c(F)c(N(C(=O)C(F)(F)F)C4CC4)c4[nH]ncc34)ccc2n1)[C@@H]1C[C@@H]1F [Example 368, (1S,2S)-N-(6-(5-chloro-7-(N-cyclopropyl-2,2,2-trifluoroacetamido)-6-fluoro-1H-indazol-4-yl)imidazo[1,2-a]pyridin-2-yl)-2-fluorocyclopropane-1-carboxamide]
IC50: < 100 nM

O=C(CCO)Nc1c(F)c(Cl)c(-c2ccc3nc(NC(=O)[C@@H]4C[C@@H]4F)cn3c2)c2cn[nH]c12 [Example 369, (1S,2S)-N-(6-(5-chloro-6-fluoro-7-(3-hydroxypropanamido)-1H-indazol-4-yl)imidazo[1,2-a]pyridin-2-yl)-2-fluorocyclopropane-1-carboxamide]
IC50: < 100 nM

CCC(C)Nc1c(F)c(Cl)c(-c2ccc3nc(NC(=O)[C@@H]4C[C@@H]4F)cn3c2)c2cn[nH]c12 (stereo partly drawn) [Example 370, (1S,2S)-N-(6-(7-(sec-butylamino)-5-chloro-6-fluoro-1H-indazol-4-yl)imidazo[1,2-a]pyridin-2-yl)-2-fluorocyclopropane-1-carboxamide]
IC50: < 100 nM

CC(C#N)Nc1c(F)c(Cl)c(-c2ccc3nc(NC(=O)[C@@H]4C[C@@H]4F)cn3c2)c2cn[nH]c12 (stereo partly drawn) [Example 371, (1S,2S)-N-(6-(5-chloro-7-((1-cyanoethyl)amino)-6-fluoro-1H-indazol-4-yl)imidazo[1,2-a]pyridin-2-yl)-2-fluorocyclopropane-1-carboxamide]
IC50: < 100 nM

O=C(Nc1cn2cc(-c3c(Cl)c(F)c(Cn4ncnn4)c4[nH]ncc34)ccc2n1)[C@@H]1C[C@@H]1F [Example 379, (1S,2S)-N-(6-(7-((2H-tetrazol-2-yl)methyl)-5-chloro-6-fluoro-1H-indazol-4-yl)imidazo[1,2-a]pyridin-2-yl)-2-fluorocyclopropane-1-carboxamide]
IC50: < 100 nM

O=C(Nc1cn2cc(-c3c(Cl)c(F)c(CN4CCC4)c4[nH]ncc34)ccc2n1)[C@@H]1C[C@@H]1F [Example 380, (1S,2S)-N-(6-(7-(azetidin-1-ylmethyl)-5-chloro-6-fluoro-1H-indazol-4-yl)imidazo[1,2-a]pyridin-2-yl)-2-fluorocyclopropane-1-carboxamide]
IC50: < 100 nM

O=C(Nc1cn2cc(-c3c(Cl)c(F)c(CN4CCCCC4)c4[nH]ncc34)ccc2n1)[C@@H]1C[C@@H]1F [Example 382, (1S,2S)-N-(6-(5-chloro-6-fluoro-7-(piperidin-1-ylmethyl)-1H-indazol-4-yl)imidazo[1,2-a]pyridin-2-yl)-2-fluorocyclopropane-1-carboxamide]
IC50: 101 to 500 nM

O=C(Nc1cn2cc(-c3c(Cl)c(F)c(Cn4nccn4)c4[nH]ncc34)ccc2n1)[C@@H]1C[C@@H]1F [Example 383, (1S,2S)-N-(6-(7-((2H-1,2,3-triazol-2-yl)methyl)-5-chloro-6-fluoro-1H-indazol-4-yl)imidazo[1,2-a]pyridin-2-yl)-2-fluorocyclopropane-1-carboxamide]
IC50: < 100 nM

O=C(Nc1cn2cc(-c3c(Cl)c(F)c(Cn4ccnn4)c4[nH]ncc34)ccc2n1)[C@@H]1C[C@@H]1F [Example 384, (1S,2S)-N-(6-(7-((1H-1,2,3-triazol-1-yl)methyl)-5-chloro-6-fluoro-1H-indazol-4-yl)imidazo[1,2-a]pyridin-2-yl)-2-fluorocyclopropane-1-carboxamide]
IC50: < 100 nM

O=C(Nc1cn2cc(-c3c(Cl)c(F)c(Cn4cncn4)c4[nH]ncc34)ccc2n1)[C@@H]1C[C@@H]1F [Example 385, (1S,2S)-N-(6-(7-((1H-1,2,4-triazol-1-yl)methyl)-5-chloro-6-fluoro-1H-indazol-4-yl)imidazo[1,2-a]pyridin-2-yl)-2-fluorocyclopropane-1-carboxamide]
IC50: < 100 nM

CN(C)c1c(F)c(Cl)c(-c2ccc3nc(NC(=O)NC4CC4)cn3c2)c2cn[nH]c12 [Example 387, 1-(6-(5-chloro-7-(dimethylamino)-6-fluoro-1H-indazol-4-yl)imidazo[1,2-a]pyridin-2-yl)-3-cyclopropylurea]
IC50: < 100 nM

Cc1cccn1-c1c(F)c(Cl)c(-c2ccc3nc(NC(=O)[C@@H]4C[C@@H]4F)cn3c2)c2cn[nH]c12 [Example 388, (1S,2S)-N-(6-(5-chloro-6-fluoro-7-(2-methyl-1H-pyrrol-1-yl)-1H-indazol-4-yl)imidazo[1,2-a]pyridin-2-yl)-2-fluorocyclopropane-1-carboxamide]
IC50: < 100 nM

CC(C)(O)c1c(F)c(Cl)c(-c2ccc3nc(NC(=O)[C@@H]4C[C@@H]4F)cn3c2)c2cn[nH]c12 [Example 389, (1S,2S)-N-(6-(5-chloro-6-fluoro-7-(2-hydroxypropan-2-yl)-1H-indazol-4-yl)imidazo[1,2-a]pyridin-2-yl)-2-fluorocyclopropane-1-carboxamide]
IC50: < 100 nM

From patent publication US11649255B2, “Indazoles as hematopoietic progenitor kinase 1 (HPK1) inhibitors and methods using same” (1st Biotherapeutics, Inc., priority 2020, dated 2023)
